Patent publication US20140315972A1, “RS)-2-(2-oxo-4-phenylpyrrolidin-1-yl)acetamide compound having modulatory activity with a commensurate effect, pharmaceutical substance (variants) and its application, composition (variants) thereof” (priority 2011, published 2014)
“And” between values parts separate entries of the source, which are not always exact repeats. Equal entries are not always repeated. Marks after values point to notes of the source that are not given here.

What was measured:
[1] = test system: mice; conditions: animals; prior art Phenotropil products; cited from earlier work
[2] = test system: MDA (malondialdehyde); experiment: Plasma TBA-MDA under negative stress (Ns, Ds); format: in vivo, rats; conditions: for km % vs experimental control (saline): Ds seven days + 200 mg/kg, listed as Phenotropil
[3] = test system: cAMP; experiment: cAMP level in functional dysmenorrhea patients; format: in vivo, human; conditions: for cAMP level / cAMP level, change in % (vs background dysmenorrhea): human plasma, primary dysmenorrhoea, first phase of the cycle
Experimental: Investigation of the effect of Phenotropil in amenorrhea and functional dysmenorrhea was conducted on groups of patients aged 14-27 years. The first group (20-27 years) diagnosed with schizophrenia, was on the maintenance neuroleptic therapy and had menstrual cycle irregularities in the form of amenorrhea (for more than 6 months). Of those, 4 had amenorrhea of not established nature, observed also prior to the pronounced primary manifestation of mental disorder, 6 patients had amenorrhea that developed during treatment with neuroleptics. Phenotropil, tablets was administered in doses of 100 mg and 200 mg per day as part of a complex antipsychotic therapy as a corrector of psychogenic side effects of neuroleptics. The dose was selected based on the individual and clinical features of the patients. The duration of Phenotropil therapy was 3 months. Two groups (14-18 years) with functional dysmenorrhea and manifestations of pronounced spastic symptoms were studied. Duration of the Phenotropil monotherapy (50 and 100 mg per day) was one month followed by administration of the drug at one-week courses as a preventive agent. Patients with functional dysmenorrhea were investigated for cAMP level in comparison with the norm control group. The cAMP level was determined using the standard kits, by the method based on the competition with the labeled cyclic 3′,5-adenosine monophosphate in the level of binding with […].

[4] = test system: HSP32; experiment: HSP32 level in brain structures (Western blot); format: in vivo; conditions: Wistar rats, no Ns
[5] = test system: mice; experiment: Fertility of female mice aged 510 days; format: in vivo
Experimental: Investigation of the effect of Phenotropil on the fertility of mice was performed in the spring period in females aged 510 days (30 animals per group). Termination of the reproductive age was established by placing every three females to a fertile male. Mating was determined by the presence of vaginal plugs. Females not mated during one month were included in the study. Throughout the entire study period (32 days), Phenotropil was administered one time per day intragastrically to the experimental group in a dose of 100 mg/kg with distilled water; the control animals received distilled water. On the eighth day of the experiment, the females were introduced to males in the following combination: two experimental and one control animal or […]. The procedure was repeated for females not covered at each stage. The same fertile males were not used for mating.

[6] = test system: HSP70; experiment: HSP70 expression in the myocardium (Western blot); format: in vivo, rats; conditions: for increase of NSP70 level in the myocardium vs Ns control: negative stress state; for increase of NSP70 content in the heart vs untreated control: no stress; for HSP 70 in myocardium: Wistar rats
Description: Determination of NSP70 (ng/mg of total protein) was studied in myocardial preparations by Western blot analysis; the results are presented in Table 14.1.

[7] = test system: rats; experiment: Training ability of immature under-trained rats in the CRPA test; format: in vivo; conditions: for LP1 (training) / LP2 (at 24 h) / ΔLP: under-trained rats 30-35 days
Experimental: In studying immature animals, it must be considered that to generate CRPA it is required, as was established, to apply higher educational incentives (0.6 mA, 8 pulses vs 5 pulses at 0.45 mA in adult rats) with re-training (after 48 hours). Development of amnesia also requires a higher dose of scopolamine (1.3 mg/kg) in rat pups. […] Phenotropil has not only a psychomodulatory (Ψ-modulatory) activity but also a Ψ-operandmodulatory activity given that the mnemotropic effect is associated with the expression of specific proteins and genes involved in memory, attention and learning.

[8] = August rats, single Ns-exposure + 200 mg/kg
[9] = Wistar rats, single Ns-exposure + 200 mg/kg
[10] = 100 mg/kg i.g. daily, by the morning of day 9

In the case of `NC(=O)CN1CC(c2ccccc2)CC1=O` (racemic) [Compound 1, (RS)-2-(2-oxo-4-phenylpyrrolidine-1-yl)acetamide], the LD50 [1] is listed as 800 mg/kg, the “Optical density of the samples vs control” value (shortened to “Optical density … vs control”) ([2]; August rats, 200 mg/kg single, no Ns) is listed as “+188.4 * %” and the “km % vs outbred group” value ([2]; August rats, 200 mg/kg, normal conditions) is listed as 0%. The “increase of plasma MDA concentration vs baseline control” value ([2]; August rats, exposure to Ns) was 2.2 times, the “plasma MDA higher than with Phenotropil without Ns” value ([2]; August rats, exposure to Ns) was 17.0% and the “MDA content vs control” value [2, 8] was “+223.0 * %”. The “Optical density … vs control” value [2, 8] was “+220.3 * %”, the “km % vs outbred group” value ([2]; August rats, three-time Ns + 200 mg/kg) was “+27.8% *” and the “Optical density … vs control” value ([2]; Wistar rats, 200 mg/kg single, no Ns) was “+66.5 * %”. For the same compound, the “km % vs outbred group” value ([2]; Wistar rats, 200 mg/kg, normal conditions) was 0%, the “km % vs experimental control (saline)” value ([2]; Wistar rats, 200 mg/kg) was −65.6% and −65.6 *** % and the “reduction of MDA level vs baseline control without stress” value ([2]; Wistar rats, exposure to Ns) was 6.0%. For the same compound, the “MDA content vs control” value [2, 9] was −6.0 * %, the “Optical density … vs control” value [2, 9] was −6.0 * % and the “km % vs outbred group” value ([2]; Wistar rats, three-time Ns + 200 mg/kg) was −33.3% *. The “km % vs experimental control (saline)” value ([2]; outbred rats, 200 mg/kg) was −73.0% and −73.0 *** %, the “increase of species reserve of stability (intra-species Kt) in acute Ns-state” value ([2]; rats, during treatment) was 12.5% and the “activation in August relative to Wistar strain” value ([2]; single injection, no stress) was 2.9 times. The “effect of course use on serum cAMP” value ([3]; functional dysmenorrhoea, monotherapy 50 and 100 mg per day, 30 days) was “restored the functional norm of cAMP indicators”, the cAMP level ([3]; dose 50 mg) was 14.35 ± 0.87 nmol/L and the “cAMP level, change in % (vs background dysmenorrhea)” value ([3]; dose 50 mg) was −32%. The cAMP level ([3]; dose 100 mg) was 12.77 ± 1.24 nmol/L, the “cAMP level, change in % (vs background dysmenorrhea)” value ([3]; dose 100 mg) was −39% and the “HSP32 Total vs outbred control” value ([4]; 200 mg/kg single) was “+68.8 * %”. For the same compound, the “decrease of gene expression (heat shock protein)” value ([4]; tested dose) was 17.7%, the “females left uncovered (of 30)” value ([5]; 100 mg/kg i.g. daily, after 32 days) was 6 and the “females covered (of 30)” value [5, 10] was 9. The “females covered, % of the total number in the group” value [5, 10] was 30.0%, the “females covered (of 30)” value ([5]; 100 mg/kg i.g. daily, by the morning of day 17) was 11 and the “females covered (of 30)” value ([5]; 100 mg/kg i.g. daily, by the morning of day 25) was 4. The “Fertility (% of animals in the group)” value ([5]; mice, 100 mg/kg) was 80.0 * %, the “increase of NSP70 level in the myocardium vs Ns control” value (from here on “increase of NSP70 level”) ([6]; 25 mg/kg) was 38% and the “increase of NSP70 content in the heart vs untreated control” value (shortened to “increase of NSP70 content in the heart”) ([6]; 25 mg/kg) was 65%. The “increase of NSP70 level” value ([6]; 50 mg/kg) was 41.4%, the “increase of NSP70 content in the heart” value ([6]; 50 mg/kg) was 82% and the “increase of NSP70 level” value ([6]; 100 mg/kg) was 62%. The “increase of NSP70 content in the heart” value ([6]; 100 mg/kg) was 73%, the “increase of NSP70 level” value ([6]; 300 mg/kg) was 89.7% and the “increase of NSP70 content in the heart” value ([6]; 300 mg/kg) was 273%. For the same compound, the “HSP 70 in myocardium” value ([6]; 25 mg/kg i.p., normal conditions) was 0.18 ± 0.011 ng/mg total protein, the “HSP 70 in myocardium” value ([6]; 50 mg/kg i.p., normal conditions) was 0.20 ± 0.014 ng/mg total protein and the “HSP 70 in myocardium” value ([6]; 100 mg/kg i.p., normal conditions) was 0.19 ± 0.008 ng/mg total protein. The “HSP 70 in myocardium” value ([6]; 300 mg/kg i.p., normal conditions) was 0.41 ± 0.016 ng/mg total protein, the “HSP 70 in myocardium” value ([6]; Ns + 25 mg/kg i.p.) was 0.40 ± 0.02 ng/mg total protein and the “HSP 70 in myocardium” value ([6]; Ns + 50 mg/kg i.p.) was 0.41 ± 0.03 ng/mg total protein. For the same compound, the “HSP 70 in myocardium” value ([6]; Ns + 100 mg/kg i.p.) was 0.47 ± 0.02 ng/mg total protein, the “HSP 70 in myocardium” value ([6]; Ns + 300 mg/kg i.p.) was 0.55 ± 0.03 ng/mg total protein and the “mnemotropic effect by ΔLP index versus saline treated control” value ([7]; 50 mg/kg) was “+133%”. For the same compound, the “mnemotropic effect by ΔLP index versus saline treated control” value ([7]; 100 mg/kg) was “+504%”, the “mnemotropic effect by ΔLP index versus saline treated control” value ([7]; 300 mg/kg) was “+696%” and the “LP1 (training)” value ([7]; intragastric 50 mg/kg) was 7.2 ± 2.1. For the same compound, the “LP2 (at 24 h)” value ([7]; intragastric 50 mg/kg) was 18.4 ± 4.6, the ΔLP ([7]; intragastric 50 mg/kg) was 11.2 ± 3.4 and the “LP1 (training)” value ([7]; intragastric 100 mg/kg) was 7.2 ± 2.1. The “LP2 (at 24 h)” value ([7]; intragastric 100 mg/kg) was 36.2 ± 4.6, the ΔLP ([7]; intragastric 100 mg/kg) was 29.0 ± 3.4 and the “LP1 (training)” value ([7]; intragastric 300 mg/kg) was 6.8 ± 1.2^. The “LP2 (at 24 h)” value ([7]; intragastric 300 mg/kg) was 45.0 ± 7.5 and the ΔLP ([7]; intragastric 300 mg/kg) was 38.2 ± 4.4.
